Reference: patent US10407691B2 (priority 2014, dated 2019)
Entries after “also recorded” stand apart in the source; their conditions may differ. Non-standard residues stand in square brackets, D forms with d. Residues, ends and D or L forms follow the SMILES beside them. sY = N[C@@H](Cc1ccc(OS(=O)(=O)O)cc1)C(=O)O

Assays:
XA21 [1] = biological target: T1, XA21 (Oryza sativa subsp. indica, UniProt Q1MX30); assay type: cell-based, Oryza sativa ssp. japonica
XA21 [2] = biological target: T1, XA21; assay type: cell-based, Oryza sativa ssp. japonica; remark: listed apart in the source
Arabidopsis seedlings [3] = system: Arabidopsis seedlings; set-up: species or system Arabidopsis thaliana; conditions: in vivo
XA21 [4] = biological target: T1, XA21; experiment: cell-based; assay type: cell-based, Oryza sativa ssp. japonica
tpst-1 seedlings = system: tpst-1 seedlings; set-up: species or system Arabidopsis thaliana; conditions: in vivo
rice seedlings = system: rice seedlings; set-up: species or system Oryza sativa sp. japonica; conditions: in vivo
Arabidopsis seedlings [5] = system: Arabidopsis seedlings; set-up: species or system Arabidopsis thaliana; conditions: in vivo; remark: listed apart in the source

T1 sequence (Q1MX30 24-1025 limits assumed): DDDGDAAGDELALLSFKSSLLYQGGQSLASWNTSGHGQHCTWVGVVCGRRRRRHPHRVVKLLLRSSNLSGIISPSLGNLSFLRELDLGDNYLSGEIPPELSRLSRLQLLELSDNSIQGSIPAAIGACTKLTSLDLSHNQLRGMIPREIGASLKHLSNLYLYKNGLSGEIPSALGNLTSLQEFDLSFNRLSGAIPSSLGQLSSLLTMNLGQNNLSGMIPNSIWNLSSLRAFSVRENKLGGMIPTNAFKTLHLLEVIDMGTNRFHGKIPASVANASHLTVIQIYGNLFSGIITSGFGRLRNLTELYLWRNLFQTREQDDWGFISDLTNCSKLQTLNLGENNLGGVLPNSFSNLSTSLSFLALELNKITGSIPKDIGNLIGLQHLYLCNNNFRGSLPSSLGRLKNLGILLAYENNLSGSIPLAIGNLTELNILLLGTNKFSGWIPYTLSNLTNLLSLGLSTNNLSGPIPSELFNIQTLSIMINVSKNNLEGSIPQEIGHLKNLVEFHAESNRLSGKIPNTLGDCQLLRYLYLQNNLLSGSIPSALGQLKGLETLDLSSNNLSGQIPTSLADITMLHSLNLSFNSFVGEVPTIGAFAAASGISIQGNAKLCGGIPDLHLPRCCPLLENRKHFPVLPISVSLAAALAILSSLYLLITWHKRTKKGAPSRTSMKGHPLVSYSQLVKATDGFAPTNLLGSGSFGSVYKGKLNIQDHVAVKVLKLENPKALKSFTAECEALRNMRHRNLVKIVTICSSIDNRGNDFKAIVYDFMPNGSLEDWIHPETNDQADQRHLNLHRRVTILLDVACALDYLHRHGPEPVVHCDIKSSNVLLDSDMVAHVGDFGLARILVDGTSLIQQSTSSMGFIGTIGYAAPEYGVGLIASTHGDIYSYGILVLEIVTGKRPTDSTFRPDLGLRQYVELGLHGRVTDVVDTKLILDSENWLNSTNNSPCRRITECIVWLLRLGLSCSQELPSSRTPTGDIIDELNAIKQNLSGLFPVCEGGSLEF

In the case of CC(C)[C@H](NC(=O)[C@@H](N)Cc1c[nH]cn1)C(=O)NCC(=O)NCC(=O)NCC(=O)N[C@@H](CC(=O)O)C(=O)N[C@@H](Cc1ccc(OS(=O)(=O)O)cc1)C(=O)N1CCC[C@H]1C(=O)N1CCC[C@H]1C(=O)N1CCC[C@H]1C(=O)NCC(=O)N[C@@H](C)C(=O)N[C@@H](CC(N)=O)C(=O)N1CCC[C@H]1C(=O)N[C@@H](CCCCN)C(=O)N[C@@H](Cc1c[nH]cn1)C(=O)N[C@@H](CC(=O)O)C(=O)N1CCC[C@H]1C(=O)N1CCC[C@H]1C(=O)N1CCC[C@H]1C(=O)N[C@@H](CCCNC(=N)N)C(=O)O [RaxX21-sY, HVGGGDY^SPPPGANPKHDPPPR] (H-HVGGGD[sY]PPPGANPKHDPPPR-OH), the defense gene expression (XA21 [1]) is reported as “significant RaxX21-sY-mediated upregulation of defense gene expression and ROS production; also recorded: activates gene expression”, the “defense gene induction (Os06g37224)” value (XA21 [1]) is reported as “induced ROS production and defense gene expression changes” and the “defense marker gene expression (Os04g10100, PR10b, Os12g36830, Os06g37224), temporal changes” value (XA21 [1]) is reported as “able to activate; also recorded: sufficient to activate XA21-mediated defense gene expression”. For the same compound, the ethylene production (XA21 [2]) was “able to activate”, the average root length (Arabidopsis seedlings [3]) was 61 mm and the “dose dependent activity on root growth” value (Arabidopsis seedlings [3]) was “effective at inducing root growth at concentrations in the low nanomolar range”. The root growth promotion (Arabidopsis seedlings [3]) was “promoted root growth in a similar manner to that observed for AtPSY1; also recorded: promotes root growth in Arabidopsis and rice”, the root length (Arabidopsis seedlings [3]) was “statistically longer root lengths” and the ROS production (XA21 [4]) was “significant RaxX21-sY-mediated upregulation of defense gene expression and ROS production; also recorded: induced ROS production and defense gene expression changes; also recorded: activates the production of ROS”. The “ROS production over 90 min” value (XA21 [4]) was “triggered a ROS response characteristic of the XA21-mediated immune response”, the “XA21-mediated defense responses (ability to activate XA21-dependent signaling)” value (from here on “XA21-mediated defense responses”) (XA21 [4]) was “trigger XA21-mediated defense responses” and the “total ROS production over 3 h” value (XA21 [4]) was “retained the ability to induce XA21-dependent signaling; also recorded: able to activate”. The root growth rate (tpst-1 seedlings) was “increased root growth rate”, the root growth (rice seedlings) was “significantly enhanced root growth; also recorded: promotes root growth in Arabidopsis and rice” and the root length (rice seedlings) was “significantly longer roots”. The “effect on elf18-triggered growth inhibition” value (Arabidopsis seedlings [5]) was “do not prevent elf18-triggered growth inhibition”.

For CC(C)C[C@H](N)C(=O)N[C@@H](Cc1c[nH]c2ccccc12)C(=O)N[C@@H](CCCCN)C(=O)N[C@@H](Cc1c[nH]cn1)C(=O)N[C@H](C(=O)NCC(=O)NCC(=O)NCC(=O)N[C@@H](CC(=O)O)C(=O)N[C@@H](Cc1ccc(OS(=O)(=O)O)cc1)C(=O)N1CCC[C@H]1C(=O)N1CCC[C@H]1C(=O)N1CCC[C@H]1C(=O)NCC(=O)N[C@@H](C)C(=O)N[C@@H](CC(N)=O)C(=O)N1CCC[C@H]1C(=O)N[C@@H](CCCCN)C(=O)N[C@@H](Cc1c[nH]cn1)C(=O)N[C@@H](CC(=O)O)C(=O)N1CCC[C@H]1C(=O)N1CCC[C@H]1C(=O)N1CCC[C@H]1C(=O)N[C@@H](CCCNC(=N)N)C(=O)O)C(C)C [RaxX24-sY], the EC50 (XA21 [4]) was about 30 nM, the “XA21-mediated defense responses” value (XA21 [4]) was “trigger XA21-mediated defense responses” and the “total ROS production over 3 h” value (XA21 [4]) was “confirmed”.

With CC(C)C[C@H](NC(=O)[C@H](CCCNC(=N)N)NC(=O)[C@H](CCC(N)=O)NC(=O)[C@H](CC(=O)O)NC(=O)[C@H](CC(C)C)NC(=O)[C@@H]1CCCN1C(=O)[C@H](CCC(=O)O)NC(=O)[C@@H]1CCCN1C(=O)[C@H](CCCNC(=N)N)NC(=O)CNC(=O)[C@@H](N)CCCCN)C(=O)N[C@@H](Cc1c[nH]c2ccccc12)C(=O)N[C@@H](CCCCN)C(=O)N[C@@H](Cc1c[nH]cn1)C(=O)N[C@H](C(=O)NCC(=O)NCC(=O)NCC(=O)N[C@@H](CC(=O)O)C(=O)N[C@@H](Cc1ccc(OS(=O)(=O)O)cc1)C(=O)N1CCC[C@H]1C(=O)N1CCC[C@H]1C(=O)N1CCC[C@H]1C(=O)NCC(=O)N[C@@H](C)C(=O)N[C@@H](CC(N)=O)C(=O)N1CCC[C@H]1C(=O)N[C@@H](CCCCN)C(=O)N[C@@H](Cc1c[nH]cn1)C(=O)N[C@@H](CC(=O)O)C(=O)N1CCC[C@H]1C(=O)N1CCC[C@H]1C(=O)N1CCC[C@H]1C(=O)N[C@@H](CCCNC(=N)N)C(=O)N[C@@H](CC(N)=O)C(=O)N1CCC[C@H]1C(=O)NCC(=O)N[C@@H](Cc1c[nH]cn1)C(=O)N[C@@H](Cc1c[nH]cn1)C(=O)O)C(C)C [RaxX39-sY] the “defense gene expression (PR10b and Os06g37224)” value (XA21 [1]) was “triggers defense gene expression in an XA21-dependent manner; also recorded: activates XA21-mediated defense gene expression” and the “XA21-mediated defense responses” value (XA21 [4]) was “trigger XA21-mediated defense responses”.

With “DY^SGDPSANPKHDPGVPPS [AtPSY1, reference compound]” the “dose dependent activity on root growth” value (Arabidopsis seedlings [3]) was “less active than RaxX21-sY and PSK”, the root growth (Arabidopsis seedlings [3]) was “increased root growth in a similar manner to that observed for treatment of wild type Col-0 seedlings; also recorded: also responds” and the “ROS production over 90 min” value (XA21 [4]) was “failed to induce ROS production”. The root growth rate (tpst-1 seedlings) was “increased root growth rate”, the root growth (rice seedlings) was “significantly enhanced root growth” and the “effect on elf18-triggered growth inhibition” value (Arabidopsis seedlings [5]) was “do not prevent elf18-triggered growth inhibition”.

“DY^SPAPGANPRHNPKRPPG [OsPSY1a, reference compound]” was tested, and the “ROS production over 90 min” value (XA21 [4]) was “failed to induce ROS production”.

DY^SPPPGANPKHDP [RaxX13-sY] was tested, and the root growth promotion (Arabidopsis seedlings [3]) was “still capable of promoting root growth”, the “ROS production over 90 min” value (XA21 [4]) was “did not induce ROS production” and the root growth (rice seedlings) was “still capable of promoting root growth”.

For DY^SPPPGANPKHDPPPR [RaxX16-sY], the root growth promotion (Arabidopsis seedlings [3]) was “still capable of promoting root growth”, the “ROS production over 90 min” value (XA21 [4]) was “triggered a ROS response characteristic of the XA21-mediated immune response; also recorded: able to recognize” and the root growth (rice seedlings) was “still capable of promoting root growth”.

With HVGGGDYPPPGANPKHDPPPR [RaxX21-Y] the ethylene production (XA21 [2]) was “not” and the “dose dependent activity on root growth” value (Arabidopsis seedlings [3]) was “promoted root growth, but was less active than the sulfated version”.

In the case of “KGRPEPLDQRLWKHVGGGDYPPPGANPKHDPPPRNPGHH [RaxX39-Y]”, the “defense gene expression (PR10b and Os06g37224)” value (XA21 [1]) is reported as “does not”.

With LWKHVGGGDYPPPGANPK [RaxX18-sY] the “ROS production dose response (activity)” value (XA21 [4]) was “completely inactive”, the “XA21-mediated defense responses” value (XA21 [4]) was “do not” and the “total ROS production over 3 h” value (XA21 [4]) was “compromised in this activity”.

With “LWKHVGGGDY^SAPPGSNDRHDPPKP [RaxX24-Xcm-sY]” the root growth promotion (Arabidopsis seedlings [3]) was “promoted root growth on Arabidopsis seedlings in a manner similar to that of RaxX21-sY”.

“LWKHVGGGDY^SPPPGANTKHDPPPK [RaxX24-Xe-sY]” was tested, and the root growth promotion (Arabidopsis seedlings [3]) was “promoted root growth on Arabidopsis seedlings in a manner similar to that of RaxX21-sY”.

“LWKHVGGGDY^SPPSGPNTKHDPPPP [RaxX24-Xoc-sY]” was tested, and the root growth promotion (Arabidopsis seedlings [3]) was “promoted root growth on Arabidopsis seedlings in a manner similar to that of RaxX21-sY; also recorded: still capable of inducing root growth”.

In the case of Y^SIY^STQ [PSK, reference compound], the “dose dependent activity on root growth” value (Arabidopsis seedlings [3]) is reported as “comparable”, the “ROS production over 90 min” value (XA21 [4]) is reported as “failed to activate XA21-mediated immune response” and the “effect on elf18-triggered growth inhibition” value (Arabidopsis seedlings [5]) is reported as “attenuates elf18-mediated growth inhibition”.
